Reference: publication PMC9960821, “Evaluation of Rhenium and Technetium-99m Complexes Bearing Quinazoline Derivatives as Potential EGFR Agents” (Molecules, 2023)
Where two headings read alike, the source gives them in different places. One block for each compound: values may come before it.

Columns and labels:
A431 cells = test: In vitro growth inhibition (MTT assay) in A431 cells; type: cell-based, human; settings: read-out: Inhibition of cell growth IC50
Method: This assay measures the amount of MTT reduction by mitochondrial dehydrogenase and assumes that cell viability (corresponding to the reductive activity) is proportional to the production of purple formazan that is measured spectrophotometrically.
(§1) Cell line. The in vitro biological studies were established using the human epidermoid vulvar carcinoma A431 cell line, which overexpresses EGFR. Cells were available in our laboratory from previous studies. Cells were maintained in high glucose D-MEM medium with L-glutamine (PAA Laboratories GmbH, Pasching, Austria) and supplemented with 10% fetal bovine serum (PAA Laboratories GmbH) and penicillin/streptomycin (PAA Laboratories GmbH) 100 UI/100 μg per mL, in 5% CO2 incubator at 37 °C.
The in vitro cytotoxicity of the synthesized ligands and their rhenium complexes was determined by the MTT method. The A431 cells were seeded in 96-well plates at a density of 4000 cells per 100 μL per well and incubated for 24 h so that they were attached to the wells. After 24 h, the studied derivatives were dissolved in DMSO ([…]) and further diluted in D-MEM in various concentrations. […] The six concentrations of each derivative and control existed quadrupled into the experiment. The derivatives and the cells were incubated for 72 h. After three days, the medium was removed, and the cells were incubated […] in the presence of MTT (1 mg/mL 3-[4,5-dimethylthiazol-2-yl]-2,5-diphenyltetrazolium bromide, Sigma, Saint Louis, MO, USA) in RPMI (PAA Laboratories GmbH, Pasching, Austria) without phenol red for 2 h at 37 °C. The MTT solution was removed, and 2-propanol was added to each well to stop the cleavage of the tetrazolium ring by dehydrogenase enzymes which convert MTT to an insoluble purple formazan in living cells. The plates were then agitated at room temperature for about 15–20 min, and the level of the colored formazan derivative was determined by measuring optical density (OD) on an ELISA reader (540/620 nm). […] Cell proliferation assay was performed three times for each compound.

EGFR = target: T1, EGFR (Homo sapiens, UniProt P00533); test: Inhibition of EGFR phosphorylation in intact A431 cells (immunoblotting); type: cell-based; settings: 2 h compound then EGF 20 ng/mL 5 min, Western blot
T1 construct: by immunoblotting in intact A431 cells that overexpress EGFR; endogenous in cells; host or cells: A431 (human epidermoid vulvar carcinoma)
T1 sequence (P00533 25-1210): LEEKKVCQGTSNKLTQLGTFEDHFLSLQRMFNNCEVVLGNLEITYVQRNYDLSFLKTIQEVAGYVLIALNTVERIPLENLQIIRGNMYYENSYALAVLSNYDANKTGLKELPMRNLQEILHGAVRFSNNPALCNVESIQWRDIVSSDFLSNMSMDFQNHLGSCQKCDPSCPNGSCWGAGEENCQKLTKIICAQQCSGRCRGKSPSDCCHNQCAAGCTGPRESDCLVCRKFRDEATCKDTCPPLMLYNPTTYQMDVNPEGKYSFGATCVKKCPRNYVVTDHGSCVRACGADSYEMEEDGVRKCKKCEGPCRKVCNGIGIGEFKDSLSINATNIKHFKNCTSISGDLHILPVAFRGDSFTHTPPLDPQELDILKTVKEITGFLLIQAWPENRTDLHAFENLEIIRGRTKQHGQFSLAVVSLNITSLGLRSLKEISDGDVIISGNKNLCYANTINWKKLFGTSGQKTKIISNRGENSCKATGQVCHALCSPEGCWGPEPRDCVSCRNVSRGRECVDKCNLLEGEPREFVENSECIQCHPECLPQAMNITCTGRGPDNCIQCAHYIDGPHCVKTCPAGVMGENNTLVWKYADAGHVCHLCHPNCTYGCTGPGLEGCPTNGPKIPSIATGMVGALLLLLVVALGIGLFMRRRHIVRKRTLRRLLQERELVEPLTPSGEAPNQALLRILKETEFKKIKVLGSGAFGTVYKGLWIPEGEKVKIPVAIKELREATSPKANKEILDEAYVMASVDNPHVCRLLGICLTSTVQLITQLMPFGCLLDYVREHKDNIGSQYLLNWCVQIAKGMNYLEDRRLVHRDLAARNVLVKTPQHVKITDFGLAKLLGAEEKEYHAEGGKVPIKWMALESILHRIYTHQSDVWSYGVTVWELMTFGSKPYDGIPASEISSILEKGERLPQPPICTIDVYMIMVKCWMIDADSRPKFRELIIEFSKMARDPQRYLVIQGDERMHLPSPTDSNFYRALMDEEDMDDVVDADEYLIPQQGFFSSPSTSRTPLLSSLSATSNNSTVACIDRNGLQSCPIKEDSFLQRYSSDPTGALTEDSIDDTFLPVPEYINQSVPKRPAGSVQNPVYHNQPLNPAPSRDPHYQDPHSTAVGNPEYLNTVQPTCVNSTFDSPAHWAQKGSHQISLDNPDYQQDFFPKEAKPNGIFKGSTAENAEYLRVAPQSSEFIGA
Method: Complex 5a was evaluated for its potency to inhibit EGFR phosphorylation in various concentrations by immunoblotting in intact A431 cells that overexpress EGFR (Figure 3). In addition, the percentage of EGFR phosphorylation was calculated, and a dose-response curve was performed (Figure 4).
as §1
The inhibition of EGFR phosphorylation was studied as described in the literature. A431 cells (5 × 10^5 cells/well) were seeded in 6-well plates and incubated for 24 h. Then, the medium was replaced with fresh medium without fetal bovine serum. […] Protein band quantification was performed using Image-J software, and the percentage of EGFR phosphorylation inhibition was calculated using GraphPad Prism 9.0 software.

[1] = Stability of 99mTc complexes in reaction mixture and after isolation in PBS (RP-HPLC); type: physicochemical
Method: (§2) The stability of complexes 5b and 7b was studied in their reaction mixture and after isolation by HPLC for up to 24 h.
Stability of ^99mTc complexes in the reaction mixture: Samples of the ^99mTc complexes’ reaction mixture were stored at room temperature for up to 24 h. At 1, 6, and 24 h intervals, 100 μL of each sample was removed and analyzed by RP-HPLC.
Stability of isolated ^99mTc complexes: Purification and isolation of 5b and 7b complexes were performed by injection of the reaction mixture into RP-HPLC and isolation of the eluted compounds’ peaks, corresponding to the elution time of each complex. Followingly, 0.1 M PBS buffer solution (900 µL) was added to a vial containing 100 µL (50–120 MBq) of the isolated technetium-99m complex. The sample was incubated at 37 °C for up to 24 h and analyzed by RP-HPLC at 1, 6, and 24 h intervals.

[2] = Cysteine and histidine challenge of 99mTc complexes (RP-HPLC); type: physicochemical
Method: as §2
Cysteine and histidine challenge: Histidine (100 µL, 1 × 10^−2 M) or cysteine (100 µL, 1 × 10^−2 M) solution in 0.1 M PBS was mixed with 100 µL (50–120 MBq) of the RP-HPLC isolated ^99mTc complexes in 0.1 M PBS (800 µL). The mixtures were incubated at 37 °C for up to 24 h and analyzed by RP-HPLC at 1, 6, and 24 h intervals.

[3] = Lipophilicity, shake-flask distribution coefficient; type: physicochemical; settings: n-octanol/0.1 M phosphate buffer pH 7.4
Method: The pharmacokinetic profile of the studied compounds could be affected by their lipophilicity, expressed as the logarithm of the distribution coefficient (log Do/w). The lipophilicity of complexes 5b and 7b was determined in physiological conditions (n-octanol/0.1 M phosphate buffer pH 7.4). […] The presence of the pyridine ring in the chemical structure of complex […] increases the log D7.4 value, as expected.
The distribution coefficient of the 5b and 7b complexes was determined with the shake-flask method. The RP-HPLC isolated ^99mTc complexes (20 μL, ~75 kBq) were mixed with 2 mL of 1-octanol and 2 mL of phosphate buffer solution (PBS, 0.1 M, pH 7.4) in a centrifuge tube. The mixture was vortexed at room temperature for 2 min and centrifuged at 5000 rpm for 10 min. The radioactivity of each phase (200 μL) was counted in a gamma counter. The distribution coefficient was calculated by dividing the cpm/mL in the 1-octanol phase by those in the buffer, and the results were expressed as logD7.4. Each experiment was run in triplicate.

[4] = Biodistribution in healthy Swiss Albino mice after intravenous injection; type: in vivo; settings: i.v.
Method: The pharmacokinetic profile of complexes 5b and 7b was evaluated in Swiss Albino healthy male mice at 5, 60, and 240 min post intravenous injection. Table 4 presents the results of the biodistribution studies expressed as % Injected Dose (ID)/g ± Standard Deviation (±SD). […] The high lipophilicity characterizing both complexes justifies the rapid hepatobiliary excretion, given the decreasing activity in the liver and the increasing amount of radioactivity in the intestines. Complex 5b presented faster clearance and elimination in the intestines at 60 min p.i. 34.05% of the radioactivity excreted, compared to 29.89% at 240 min p.i. of complex 7b. Radioactivity in the urine remained low in general, however, the lower logD7.4 value of complex 7b explains the relatively higher activity in the urines (7.88 ± 0.71%) as it is slightly more hydrophilic than 5b. Moreover, the low uptake in the brain indicates almost no blood-brain barrier penetration, although the complexes have favorable physicochemical characteristics.
All the biodistribution experiments were carried out in compliance with the national laws and European protocols (2010/63/EU) related to the conduct of animal experimentation. Nine healthy Swiss Albino mice (male, 30 ± 3 g), divided into three groups of three, were injected with the HPLC-purified 5b or 7b complex in saline with 10% EtOH (0.1 mL, ~75 kBq) through the tail vein. For each group, the animals were sacrificed by cardiectomy under slight ether anesthesia 5, 60, and 240 min after the injection. The organs of interest were excised, weighed, and counted in an automatic gamma counter. The bladder and excreted urine were not weighed. The stomach and intestines were not emptied of food contents prior to radioactivity measurements. The percentage of injected dose per organ (%ID/organ) was calculated by comparison of sample radioactivity to standard solutions containing 10% of the injected dose. The calculation for blood and muscle was based on measured activity, sample weight, and body composition data (considering that blood and muscle comprise 7 and 43% of body weight). The percentage of injected dose per gram (%ID/g) was calculated by dividing the %ID/organ by the weight of the organ or tissue.

[5] = Homo sapiens, A-431, A431 cancer cell line, MTT, 72 h, mean ± SD of three experiments
[6] = A431 cancer cell line, MTT, 72 h, mean ± SD of three experiments

IC50 (A431 cells; [6]): 29.6 ± 3.63 µM
SMILES: NC(CSCCCCCC(=O)Nc1ccc2ncnc(Nc3cccc(Br)c3)c2c1)C(=O)[O-].[C-]#[O+].[C-]#[O+].[C-]#[O+].[Re+] (stereo not shown) [Compound 7a, fac-[Re(SNO)(CO)3]]

%RCP in PBS for 24 h ([1]; 0.1 M PBS, 37 °C, 24 h): 99 ± 1% | Stability in reaction mixture and after isolation by HPLC ([1]; up to 24 h, room temperature or 37 °C): No decomposition | Stability after incubation with excess of histidine and cysteine ([2]; 24 h, molar ratio 1/1000, HPLC): > 95% | %RCP in Cysteine for 24 h ([2]; excess cysteine, 37 °C): 95 ± 1% | %RCP in Histidine for 24 h ([2]; excess histidine, 37 °C): 95 ± 2% | log D7.4 [3]: 2.87 ± 0.32 | In vivo stability (low spleen and stomach radioactivity; no oxidation to pertechnetate/TcO2) [4]: stable in vivo | Blood %Injected Dose/g ([4]; 5 min): 1.06 ± 0.29 %Injected Dose/g | Brain %Injected Dose/g ([4]; 5 min): 0.06 ± 0.02 %Injected Dose/g | Heart %Injected Dose/g ([4]; 5 min): 0.97 ± 0.29 %Injected Dose/g | Intestines %Injected Dose/g ([4]; 5 min): 10.62 ± 1.17 %Injected Dose/g | Kidneys %Injected Dose/g ([4]; 5 min): 13.04 ± 2.34 %Injected Dose/g | Liver %Injected Dose/g ([4]; 5 min): 23.33 ± 3.63 %Injected Dose/g | Lungs %Injected Dose/g ([4]; 5 min): 1.19 ± 0.22 %Injected Dose/g | Muscle %Injected Dose/g ([4]; 5 min): 0.29 ± 0.11 %Injected Dose/g | Pancreas %Injected Dose/g ([4]; 5 min): 1.10 ± 0.11 %Injected Dose/g | Spleen %Injected Dose/g ([4]; 5 min): 0.92 ± 0.32 %Injected Dose/g | Stomach %Injected Dose/g ([4]; 5 min): 1.04 ± 0.10 %Injected Dose/g | Urine % ID ([4]; 5 min): 0.08 ± 0.06 % ID | Blood %Injected Dose/g ([4]; 60 min): 0.30 ± 0.09 %Injected Dose/g | Brain %Injected Dose/g ([4]; 60 min): 0.02 ± 0.01 %Injected Dose/g | Heart %Injected Dose/g ([4]; 60 min): 0.18 ± 0.03 %Injected Dose/g | Intestines %Injected Dose/g ([4]; 60 min): 26.81 ± 1.61 %Injected Dose/g | Kidneys %Injected Dose/g ([4]; 60 min): 1.94 ± 0.28 %Injected Dose/g | Liver %Injected Dose/g ([4]; 60 min): 4.88 ± 0.47 %Injected Dose/g | Lungs %Injected Dose/g ([4]; 60 min): 0.26 ± 0.04 %Injected Dose/g | Muscle %Injected Dose/g ([4]; 60 min): 0.13 ± 0.12 %Injected Dose/g | Pancreas %Injected Dose/g ([4]; 60 min): 0.24 ± 0.05 %Injected Dose/g | Spleen %Injected Dose/g ([4]; 60 min): 0.11 ± 0.02 %Injected Dose/g | Stomach %Injected Dose/g ([4]; 60 min): 0.97 ± 0.22 %Injected Dose/g | Urine % ID ([4]; 60 min): 5.83 ± 0.02 % ID | Blood %Injected Dose/g ([4]; 240 min): 0.18 ± 0.04 %Injected Dose/g | Brain %Injected Dose/g ([4]; 240 min): 0.07 ± 0.06 %Injected Dose/g | Heart %Injected Dose/g ([4]; 240 min): 0.12 ± 0.00 %Injected Dose/g | Intestines %Injected Dose/g ([4]; 240 min): 29.89 ± 2.41 %Injected Dose/g | Kidneys %Injected Dose/g ([4]; 240 min): 1.12 ± 0.03 %Injected Dose/g | Liver %Injected Dose/g ([4]; 240 min): 4.46 ± 0.16 %Injected Dose/g | Lungs %Injected Dose/g ([4]; 240 min): 0.25 ± 0.08 %Injected Dose/g | Muscle %Injected Dose/g ([4]; 240 min): 0.03 ± 0.00 %Injected Dose/g | Pancreas %Injected Dose/g ([4]; 240 min): 0.12 ± 0.02 %Injected Dose/g | Spleen %Injected Dose/g ([4]; 240 min): 0.09 ± 0.02 %Injected Dose/g | Stomach %Injected Dose/g ([4]; 240 min): 0.96 ± 0.06 %Injected Dose/g | Urine % ID ([4]; 240 min): 7.88 ± 0.71 % ID
SMILES: NC(CSCCCCCC(=O)Nc1ccc2ncnc(Nc3cccc(Br)c3)c2c1)C(=O)[O-].[99Tc+].[C-]#[O+].[C-]#[O+].[C-]#[O+] (stereo not shown) [Compound 7b]

Continued, compound first:

SMILES: NC(CSCCCCCC(=O)Nc1ccc2ncnc(Nc3cccc(Br)c3)c2c1)C(=O)O (stereo not shown) [Compound 6, 6-(cysteine-N-hexanoyl)-4-[(3-bromophenyl)amino]-quinazoline]
IC50 (A431 cells; [5]): 4.12 ± 0.92 µM

SMILES: O=C([O-])CN(CCCCCC(=O)Nc1ccc2ncnc(Nc3cccc(Br)c3)c2c1)Cc1ccccn1.[C-]#[O+].[C-]#[O+].[C-]#[O+].[Re+] [Compound 5a, fac-[Re(NNO)(CO)3]]
IC50 (A431 cells; [6]): 8.85 ± 2.62 µM | IC50 (EGFR): 0.0261 µM

SMILES: Nc1ccc2ncnc(Nc3cccc(Br)c3)c2c1 [Compound 1, 6-amino-4-[(3-bromophenyl)amino] quinazoline, reference compound]
IC50 (A431 cells; Homo sapiens, A-431, 72 h): 2.3 ± 0.3 µM

SMILES: CCOC(=O)CN(CCCCCC(=O)Nc1ccc2ncnc(Nc3cccc(Br)c3)c2c1)Cc1ccccn1 [Compound 4, 6-(pyridine-2-methyl N, N, acetic ethyl ester-hexanoyl)-4-[(3-bromophenyl)amino]-quinazoline]
IC50 (A431 cells; [5]): 25.6 ± 3.87 µM
